Experiments:
Format in all cases: cell-based
[1] = tested on: LC3II/I ratio in C2C12 cells; experiment: Autophagy flux (LC3II/I ratio), C2C12 cells; conditions: 24 hours with 400 uM H2O2, FIG. 6A
Experimental: (§1) Treatments and cells. 6-hour and 24-hour cell culture treatments were with one of the following compounds: 1. Control or “vehicle” (DMSO+phosphate-buffered saline only); 2. Niagen (5 μg/mL); 3. BHB (beta hydroxybutyrate) (30 ug/mL); 4. CBD (cannabidiol) (5 ug/mL); 5. Olive leaf (5 ug/mL); 6. Dynamine (1 ug/mL); 7. Selenium (2 ug/mL); 8. Tributyrin (5 ug/mL)
(§2) Treatment materials and methods. C2C12 cells were treated with compounds 1-8 as listed above for 6 hours without hydrogen peroxide (H2O2) (termed “unperturbed cells” throughout); or cells were treated with compounds 1-8 above for 24 hours with a concomitant 400 uM hydrogen peroxide (H2O2).
Autophagy flux (or activity) was assessed by assaying the LC3II/I ratio. This assay has been deemed the “gold standard” in autophagy monitoring (see e.g., Autophagy, 2007 Nov.-Dec.; 3(6):542-5).
(§3) Western blot analysis was performed using antibodies that detected p-H2AX protein, LC3I, LC3II, 4HNE, and NLRP3 proteins in both the C2C12 and EOMA cells. Ponceau stain was used for protein staining.

4HNE in C2C12 cells = experiment: Oxidative stress (4HNE assay), C2C12 cells; conditions: C2C12 cells co-incubated with H2O2, FIG. 6C
Experimental: as §1, §2
Oxidative stress was assessed using the 4HNE assay which is a product of cellular lipid oxidation (see e.g., Am J Physiol Cell Physiol. 2016 Oct. 1; 311(4): C537-0543).
as §3

C2C12 cells = experiment: Total antioxidant capacity (TEAC assay), C2C12 cells with H2O2; conditions: C2C12 cells co-incubated with H2O2, FIG. 5B
Experimental: Treatments and cells. 6-hour and 24-hour cell culture treatments were with one of the following compounds: 1. Control or “vehicle” (DMSO+phosphate-buffered saline only); 2. […] (5 μg/mL); 3. BHB (beta hydroxybutyrate) (30 ug/mL); 4. […] Olive leaf (5 ug/mL); 6. Dynamine (1 ug/mL); 7. […] Tributyrin (5 ug/mL) Treatment materials and methods. […] Total antioxidant capacity was assessed using a Trolox equivalent antioxidant capacity (TEAC) assay.

Row | SMILES | autophagy (LC3II/I ratio) [1] | cellular oxidative stress (4HNE) (4HNE in C2C12 cells) | total antioxidant capacity (Trolox) (C2C12 cells) | total antioxidant capacity (Trolox) (C2C12 cells; listed as Tributyrin) | total antioxidant capacity (Trolox) (C2C12 cells; listed as Selenium)
1 | CC(O)CC(=O)O (stereo not drawn) [BHB, beta hydroxybutyrate] | increased autophagy | decrease cellular oxidative stress |  |  | 
2 | C=C(C)[C@@H]1CCC(C)=C[C@H]1c1c(O)cc(CCCCC)cc1O [CBD, cannabidiol] | increased autophagy |  |  |  | 
3 | CCCC(=O)OCC(COC(=O)CCC)OC(=O)CCC [tributyrin] |  |  | increase (e.g., restore) total antioxidant activity | increase or restore antioxidant capacity | 
4 | [Se] [selenium] | increased autophagy |  | increase (e.g., restore) total antioxidant activity |  | increase or restore antioxidant capacity
